Measured values published in US20030125337A1, “Inhibitors of multidrug transporters” (priority 1998, published 2003).
≈ marks a conversion by molar mass, not a printed value. Where two headings read alike, the source gives them in different places.

Tests used:
[1] = system: first step mutants of S. pneumoniae (ATCC 49619); details: three first step mutants, non-toxic concentration
NorA [2] = target: T1, NorA (Staphylococcus aureus, UniProt P0A0J7); details: reference for CoMFA predictions; cited from earlier work
T1 construct: expressed in transfected cells; host or cells: Bacillus subtilis strain NA
T1 sequence (P0A0J7 whole entry): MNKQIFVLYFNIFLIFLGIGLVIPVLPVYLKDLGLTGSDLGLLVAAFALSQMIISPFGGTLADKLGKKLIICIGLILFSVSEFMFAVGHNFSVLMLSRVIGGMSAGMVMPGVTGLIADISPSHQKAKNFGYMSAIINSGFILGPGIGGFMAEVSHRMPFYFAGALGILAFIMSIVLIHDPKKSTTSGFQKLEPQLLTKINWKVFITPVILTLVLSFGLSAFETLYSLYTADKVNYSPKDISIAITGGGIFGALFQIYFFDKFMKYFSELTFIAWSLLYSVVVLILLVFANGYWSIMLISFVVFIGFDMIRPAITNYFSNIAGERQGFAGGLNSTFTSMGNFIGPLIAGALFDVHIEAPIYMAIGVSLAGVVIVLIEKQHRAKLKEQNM

NorA [3] = target: T1, NorA; details: cited from earlier work
Bmr = Bmr (Bacillus subtilis, UniProt P33449); details: cited from earlier work
Chain of Bmr (P33449 whole entry): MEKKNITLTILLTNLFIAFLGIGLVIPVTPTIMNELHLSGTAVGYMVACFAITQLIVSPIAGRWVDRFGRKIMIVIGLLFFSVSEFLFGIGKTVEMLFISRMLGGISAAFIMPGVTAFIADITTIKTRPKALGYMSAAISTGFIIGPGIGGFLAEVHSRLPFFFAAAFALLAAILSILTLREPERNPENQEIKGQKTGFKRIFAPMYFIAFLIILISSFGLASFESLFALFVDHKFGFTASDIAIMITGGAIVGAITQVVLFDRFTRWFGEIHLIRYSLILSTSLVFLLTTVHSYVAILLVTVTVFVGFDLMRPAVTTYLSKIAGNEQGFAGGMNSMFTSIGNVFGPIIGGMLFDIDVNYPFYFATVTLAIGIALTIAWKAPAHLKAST

B. subtilis = details: inhibition of the Bmr transporter; cited from earlier work
wild-type S. aureus = details: cited from earlier work
S. aureus (SA1199B) = assay: Minimal inhibitor concentration decreasing the ciprofloxacin MIC two fold, S. aureus SA1199B; format: cell-based; details: Staphylococcus aureus, read-out: Effectivity IC50* S. Aureus
NorA [4] = target: T1, NorA; format: cell-based; details: FIG. 8; reserpine 20 μg/ml, INF 55, 240, 271, 392 5 μg/ml, INF 277 10 μg/ml
Description: Effect of the lead inhibitors on ethidium efflux from NA cells. NA cells were loaded with ethidium in the presence of reserpine and allowed to efflux in the absence of reserpine (A) in the presence of 20 μg/ml reserpine (B), 5 μg/ml of INF 55 (C), 5 μg/ml of INF 240 (D), 5 μg/ml of INF 271 (E), 5 μg/ml of INF 392 (F), or 10 μg/ml of INF 277 (G). Fluorescence intensity is proportional to the amount of ethidium remaining inside the cells.
NA cells overexpressing NorA were loaded with ethidium bromide in the presence of reserpine (20 μg/ml). After washing, cells were placed in a fluorimeter cuvette with fresh medium.

S. pneumoniae = details: cited from earlier work
[5] = system: wild type S. aureus SA1199; format: cell-based; details: INF inhibitors 5 μg/ml, reserpine 20 μg/ml; for Fold inhibition of emergence of resistance: ciprofloxacin resistance, SA1199
Description: The effect of the inhibitors on the rate of emergence of in vitro selected single-step ciprofloxacin resistant mutants of wild type S. aureus SA1199 (Kaatz et al., 1990) was determined.
Ciprofloxacin resistance in first step in vitro selected mutants of S. aureus is predominantly due to specific point mutations in the targets of this drug, topoisomerase IV and gyrase (Cambau and Gutman, 1993; Ferrero et al., 1994).

S. pneumoniae (SPC2A) = assay: Minimal inhibitor concentration decreasing the ciprofloxacin MIC two fold, S. pneumoniae SPC2A; format: cell-based; details: Streptococcus pneumoniae; SPC2A; minimal concentration required to decrease the MIC for ciprofloxacin by two fold; N.A. = not active at 5 μg/ml; read-out: IC50 S. Pneumoniae
[6] = system: NorA-overexpressing S. aureus, SA1199B; assay: Frequency of emergence of SA1199B mutants insensitive to the NorA inhibitor (adaptation of NorA); format: cell-based; details: mutagenized SA1199B, ethidium bromide 10 μg/ml, INF inhibitors 5 μg/ml, reserpine 20 μg/ml, 48 h
Description: To evaluate the possibility of such mutations arising in the NorA transporter the inventors determined the frequency of emergence of mutants of NorA-overexpressing S. aureus, SA1199B, that retained resistance to a NorA substrate in spite of the presence of a NorA inhibitor. […] After a 48 h incubation period the number of colonies on each plate was determined.

E. faecalis = details: cited from earlier work
[7] = S. pneumoniae strain EBR, non-toxic concentrations

## COC(=O)[C@H]1[C@H]2C[C@@H]3c4[nH]c5cc(OC)ccc5c4CCN3C[C@H]2C[C@@H](OC(=O)c2cc(OC)c(OC)c(OC)c2)[C@@H]1OC [Reserpine, reserpine]
[1]
  reversal of resistance to ciprofloxacin and ethidium bromide: reversed the resistance
NorA [2]
  concentration at which known to be active: 5 µg/mL
NorA [3]
  inhibition of drug efflux mediated by NorA: completely inhibited
Bmr
  inhibition of drug efflux mediated by Bmr: completely inhibited
B. subtilis
  reduction of the MIC of norfloxacin: by a factor of five
wild-type S. aureus
  reduction of the MIC of norfloxacin: at least four-fold
S. aureus (SA1199B)
  IC50: 6.25 µg/mL (≈ 10.3 µM)
NorA [4]
  inhibition of the decrease in fluorescence due to NorA-mediated ethidium efflux: dramatically inhibited
S. pneumoniae; [7]
  inhibition of ethidium efflux: inhibited ethidium efflux
  reversal of resistance to ethidium and fluoroquinolones: reversed the resistance
S. pneumoniae; wild type S. pneumoniae
  potentiation of susceptibility to ethidium and fluoroquinolones: two to three fold
S. pneumoniae; wild-type S. pneumoniae
  factor of reduction of the MIC of norfloxacin and ciprofloxacin: 2-3
[5]; SA1199, ciprofloxacin 1 μg/ml, 48 h
  Frequency of emergence of variants resistant to two fold the MIC of ciprofloxacin, Spontaneous: <5 × 10^−11
[5]; SA1199 mutagenized with ethylmethane sulfonate
  Frequency of emergence of variants resistant to two fold the MIC of ciprofloxacin, Mutagenized: <2.5 × 10^−10
[5]
  Fold inhibition of emergence of resistance: >50
[5]; listed as reserpine
  Fold inhibition of emergence of resistance: more than one order of magnitude
S. pneumoniae (SPC2A)
  IC50: 5 µg/mL (≈ 8.21 µM)
[6]
  Frequency of adaptation of NorA (mutants insensitive to the inhibitor): approximately 2×10^−8
E. faecalis
  increase in susceptibility to fluoroquinolones: two-fold increase
